# From patent US9969742B2, “Imidazotriazinone compounds” (Ironwood Pharmaceuticals, Inc., priority 2012, dated 2018)
# Read-outs that look alike come from different tables or passages of the source.
# Legend:
# Format in all cases: biochemical
# PDE9A2 = molecular target: T1, PDE9A2 (Homo sapiens, UniProt O76083); experiment: Phosphodiesterase enzyme screening assay, PDE9A2
# T1 construct: purchased Reaction Biology Corporation, Malvern, Pa
# Procedure, shortened: (§1)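 Microfluidic mobility-shift assay; values from quadruplicate wells relative to controls. Conditions: 4.0 μM cGMP, 5 mM MgCl2, pH 7.5 HEPES, 1 h R.T., EDTA stop.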
# PDE1A = molecular target: T2, PDE1A (Homo sapiens, UniProt P54750); experiment: Phosphodiesterase enzyme screening assay, PDE1A; details: value greater than 1 indicates greater selectivity for PDE9A2
# T2 construct: purchased Reaction Biology Corporation, Malvern, Pa
# T2 sequence (P54750 whole entry): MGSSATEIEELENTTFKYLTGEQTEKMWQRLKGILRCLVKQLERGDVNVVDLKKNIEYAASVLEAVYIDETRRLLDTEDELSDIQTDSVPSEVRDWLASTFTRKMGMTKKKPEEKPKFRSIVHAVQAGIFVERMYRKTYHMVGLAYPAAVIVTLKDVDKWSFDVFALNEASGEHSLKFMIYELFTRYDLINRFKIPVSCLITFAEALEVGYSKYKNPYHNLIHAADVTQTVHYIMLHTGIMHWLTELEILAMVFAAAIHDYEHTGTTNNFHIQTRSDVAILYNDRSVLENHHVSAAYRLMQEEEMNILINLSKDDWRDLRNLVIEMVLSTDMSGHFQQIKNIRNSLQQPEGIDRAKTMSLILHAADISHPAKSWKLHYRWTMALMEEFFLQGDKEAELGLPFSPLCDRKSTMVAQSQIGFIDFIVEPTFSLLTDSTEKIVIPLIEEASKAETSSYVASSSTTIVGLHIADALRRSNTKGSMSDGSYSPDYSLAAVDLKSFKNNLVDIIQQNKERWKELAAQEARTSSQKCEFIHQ
# Procedure, shortened: as §1
# PDE1B = molecular target: T3, PDE1B (Homo sapiens, UniProt Q01064); experiment: Phosphodiesterase enzyme screening assay, PDE1B; details: value greater than 1 indicates greater selectivity for PDE9A2
# T3 construct: purchased Reaction Biology Corporation, Malvern, Pa
# T3 sequence (Q01064 whole entry): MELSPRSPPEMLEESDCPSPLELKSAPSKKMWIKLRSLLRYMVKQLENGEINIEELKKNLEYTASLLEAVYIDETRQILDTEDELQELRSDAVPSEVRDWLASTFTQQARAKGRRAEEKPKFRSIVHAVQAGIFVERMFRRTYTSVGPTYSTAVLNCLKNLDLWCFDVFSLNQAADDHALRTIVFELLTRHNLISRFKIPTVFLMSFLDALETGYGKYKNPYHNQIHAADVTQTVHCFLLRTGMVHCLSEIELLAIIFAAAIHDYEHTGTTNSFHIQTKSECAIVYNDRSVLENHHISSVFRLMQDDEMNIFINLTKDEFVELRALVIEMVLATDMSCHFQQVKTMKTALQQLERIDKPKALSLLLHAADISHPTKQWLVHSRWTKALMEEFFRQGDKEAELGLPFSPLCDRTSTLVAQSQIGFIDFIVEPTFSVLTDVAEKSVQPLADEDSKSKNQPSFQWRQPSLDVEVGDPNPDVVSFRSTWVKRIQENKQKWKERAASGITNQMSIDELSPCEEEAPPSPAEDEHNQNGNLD
# Procedure, shortened: as §1
# [1] = IC50 band, 4.0 μM cGMP substrate, 1 hour at R.T.
# [2] = ratio of IC50 values PDE1A vs PDE9A2
# [3] = ratio of IC50 values PDE1B vs PDE9A2
# [4] = Table 1, 10 concentrations, 4.0 μM cGMP substrate, 1 hour at R.T., read-out: Band (PDE9A2 IC50)
# [5] = ratio of IC50 values, PDE1A versus PDE9A2
# [6] = ratio of IC50 values, PDE1B versus PDE9A2
# T1 sequence (O76083 1-533 isoform O76083-2): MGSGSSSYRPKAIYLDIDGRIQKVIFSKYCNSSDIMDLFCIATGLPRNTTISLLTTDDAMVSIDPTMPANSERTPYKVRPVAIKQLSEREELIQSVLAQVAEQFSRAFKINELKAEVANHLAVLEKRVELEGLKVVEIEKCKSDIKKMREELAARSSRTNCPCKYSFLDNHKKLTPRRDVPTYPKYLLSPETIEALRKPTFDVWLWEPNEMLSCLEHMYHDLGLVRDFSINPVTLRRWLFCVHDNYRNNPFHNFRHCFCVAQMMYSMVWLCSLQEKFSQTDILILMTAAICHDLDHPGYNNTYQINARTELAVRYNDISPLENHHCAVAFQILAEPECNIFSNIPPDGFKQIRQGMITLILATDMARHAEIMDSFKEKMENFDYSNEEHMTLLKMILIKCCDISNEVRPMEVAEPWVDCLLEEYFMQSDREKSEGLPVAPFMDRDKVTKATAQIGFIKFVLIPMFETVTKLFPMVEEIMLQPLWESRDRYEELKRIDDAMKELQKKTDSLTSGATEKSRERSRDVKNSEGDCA
structure (smiles),measurement,setting,value
"Cc1cc(F)ccc1-c1ncc2c(=O)[nH]c(C3CN(Cc4nc5ccccn5n4)CC3C)nn12 (single isomer, unassigned; (+)) [(+)-2-((3,4-trans)-1-([1,2,4]triazolo[1,5-a]pyridin-2-ylmethyl)-4-methylpyrrolidin-3-yl)-7-(4-fluoro-2-methylphenyl)imidazo[5,1-f][1,2,4]triazin-4(3H)-one]",IC50,PDE9A2; [1],< 1000 nM
same,PDE1A selectivity (versus PDE9A2),PDE1A; [2],215
same,PDE1B selectivity (versus PDE9A2),PDE1B; [3],473
"CC1CN(Cc2ccc3ncncc3c2)CC1c1nn2c(C3CCOCC3)ncc2c(=O)[nH]1 (single isomer, unassigned; (+)) [(+)-2-((3,4-trans)-4-methyl-1-(quinazolin-6-ylmethyl)pyrrolidin-3-yl)-7-(tetrahydro-2H-pyran-4-yl)imidazo[5,1-f][1,2,4]triazin-4(3H)-one]",IC50,PDE9A2; [4],< 1000 nM
same,PDE1A selectivity (versus PDE9A2),"PDE1A; Table 1, ratio of IC50 values",890
same,PDE1B selectivity (versus PDE9A2),"PDE1B; Table 1, ratio of IC50 values",1067
"CC1CN(Cc2nc3ccccn3n2)CC1c1nn2c(C3CCC(F)(F)CC3)ncc2c(=O)[nH]1 (single isomer, unassigned; (+)) [(+)-2-((3,4-trans)-1-([1,2,4]triazolo[1,5-a]pyridin-2-ylmethyl)-4-methylpyrrolidin-3-yl)-7-(4,4-difluorocyclohexyl)imidazo[5,1-f][1,2,4]triazin-4(3H)-one]",IC50,PDE9A2; [4],< 1000 nM
same,PDE1A selectivity (versus PDE9A2),"PDE1A; Table 1, ratio of IC50 values",597
same,PDE1B selectivity (versus PDE9A2),"PDE1B; Table 1, ratio of IC50 values",1847
"CC1CN(Cc2nc3ccccc3[nH]2)CC1c1nn2c(C3CCC(F)(F)CC3)ncc2c(=O)[nH]1 (single isomer, unassigned; (+)) [(+)-2-((3,4-trans)-1-((1H-benzo[d]imidazol-2-yl)methyl)-4-methylpyrrolidin-3-yl)-7-(4,4-difluorocyclohexyl)imidazo[5,1-f][1,2,4]triazin-4(3H)-one]",IC50,PDE9A2; [1],< 1000 nM
same,PDE1A selectivity (versus PDE9A2),PDE1A; [2],90
same,PDE1B selectivity (versus PDE9A2),PDE1B; [3],250
"CC1CN(Cc2ncc(C#N)cn2)CC1c1nn2c(C3CCOCC3)ncc2c(=O)[nH]1 (single isomer, unassigned; (+)) [(+)-2-(((3,4-trans)-3-methyl-4-(4-oxo-7-(tetrahydro-2H-pyran-4-yl)-3,4-dihydroimidazo[5,1-f][1,2,4]triazin-2-yl)pyrrolidin-1-yl)methyl)pyrimidine-5-carbonitrile]",IC50,"PDE9A2; Table 2, 10 concentrations, 4.0 μM cGMP substrate, 1 hour at R.T., read-out: Band (PDE9A2 IC50)",< 1000 nM
same,PDE1A selectivity (versus PDE9A2),"PDE1A; Table 2, ratio of IC50 values",22
same,PDE1B selectivity (versus PDE9A2),"PDE1B; Table 2, ratio of IC50 values",65
"Cc1ccc(F)cc1-c1ncc2c(=O)[nH]c(C3CN(Cc4cn5ccccc5n4)CC3C)nn12 (single isomer, unassigned; (+)) [(+)-7-(5-fluoro-2-methylphenyl)-2-((3,4-trans)-1-(imidazo[1,2-a]pyridin-2-ylmethyl)-4-methylpyrrolidin-3-yl)imidazo[5,1-f][1,2,4]triazin-4(3H)-one]",IC50,PDE9A2; [1],< 1000 nM
same,PDE1A selectivity (versus PDE9A2),PDE1A; [2],1437
same,PDE1B selectivity (versus PDE9A2),PDE1B; [3],1427
"Cc1ccccc1-c1ncc2c(=O)[nH]c(C3CN(Cc4ccc(F)cc4)CC3C)nn12 (single isomer, unassigned; (+)) [(+)-2-((3,4-trans)-1-(4-fluorobenzyl)-4-methylpyrrolidin-3-yl)-7-(o-tolyl)imidazo[5,1-f][1,2,4]triazin-4(3H)-one]",IC50,PDE9A2; read-out: Band (PDE9A2 IC50),< 1000 nM
same,PDE1A selectivity (versus PDE9A2),PDE1A; [5],963
same,PDE1B selectivity (versus PDE9A2),PDE1B; [6],744
"Cc1ccccc1-c1ncc2c(=O)[nH]c(C3CN(Cc4nc5ccccn5n4)CC3C)nn12 (single isomer, unassigned; (+)) [(+)-2-((3,4-trans)-1-([1,2,4]triazolo[1,5-a]pyridin-2-ylmethyl)-4-methylpyrrolidin-3-yl)-7-(o-tolyl)imidazo[5,1-f][1,2,4]triazin-4(3H)-one]",IC50,PDE9A2; read-out: Band (PDE9A2 IC50),< 1000 nM
same,PDE1A selectivity (versus PDE9A2),PDE1A; [5],490
same,PDE1B selectivity (versus PDE9A2),PDE1B; [6],429
